Experimental data published in patent US10772324B2, “Aqueous adjuvant-compositions” (CLARIANT FINANCE (BVI) LIMITED, priority 2012, dated 2020).

Key:
Assay in all cases: Greenhouse trial: effect of adjuvants on activity of glyphosate IPA (fresh weight)
Assay type in all cases: in vivo
[1] = tested on: Solanum nigrum L. (SOLNI); conditions: fresh weight relative to untreated plant, 14 days after application; 20.3 g a.e./ha glyphosate IPA; adjuvant 0.25 wt % in spray solution
Description: (§1) For the purpose of determining the biological activity, greenhouse trials were carried out with glyphosate on Echinochloa crus-galli (L.) Beauv. (ECHCG), Cirsium arvense L. (CIRAR), and Solanum nigrum L. (SOLNI). The plants were cultivated in a greenhouse under 14 hours of irradiation with light at a temperature of 19/14 (±0.5°) C. (day/night) and a relative humidity of 70/80 (±5)% (day/night). The light was supplied via high-pressure sodium lamps, high-pressure mercury lamps, and fluorescent tubes, producing a power of 70 W/m^2 at the leaf level. The plants were grown in 12 cm diameter plastic pots filled with a mixture of sand and humus in a sand:humus ratio of 1:2 by volume.
(§2) The pots were placed on an under-soil watering mat, which was wetted daily with a medium-strength nutrient solution. Following their appearance at the substrate surface, seedlings were thinned out to five (ECHCG), two (CIRAR), or one (SOLNI) plant per pot for the activity tests.
(§3) The spray solutions were applied using a laboratory sprayer operated with compressed air and fitted with a Teejet TP8003E nozzle at an application rate of 200 l/ha to the plants at 303 kPa. ECHCG was treated at the two- to three-leaf stage; CIRAR and SOLNI were treated at the four-leaf stage.
(§4) For the more differentiated examination of the adjuvant effect, the glyphosate active ingredient was underdosed, meaning that the plants are not completely killed. This was done using aqueous solutions of glyphosate-isopropylammonium salt (glyphosate IPA). The amount of glyphosate used was 33.8 g a.e./ha glyphosate IPA (corresponding to 1.0 mmol or 0.17 g a.e./l for a liquid volume of […]) in the case of ECHCG, and at 20.3 g a.e./ha glyphosate IPA (corresponding to […] or 0.10 g a.e./l at a liquid volume of 200 l/ha) for CIRAR and SOLNI. […]
(§5) The activity of the various adjuvants was assessed 14 days after application, by determining the mass of the plant parts still present (fresh weight; FW), and was reported as a percentage fraction, relative to the untreated plant (Table 3).

[2] = tested on: Cirsium arvense L. (CIRAR); conditions: fresh weight relative to untreated plant, 14 days after application; 20.3 g a.e./ha glyphosate IPA; adjuvant 0.25 wt % in spray solution
Description: as §1, §2, §3, §4, §5

[3] = tested on: Echinochloa crus-galli (L.) Beauv. (ECHCG); conditions: fresh weight relative to untreated plant, 14 days after application; 33.8 g a.e./ha glyphosate IPA; adjuvant 0.25 wt % in spray solution
Description: as §1, §2, §3, §4, §5

glyphosate-isopropylammonium salt [Glyphosate IPA]
FW in % (SOLNI) [1]: 84.5% | FW in % (CIRAR) [2]: 95.9% | FW in % (ECHCG) [3]: 74.3%
